Source: publication PMC5218480 (PLoS ONE, 2017)

Test system: MV-4-11 cells
Assay: Gene expression microarray analysis (Affymetrix PrimeView) and GSEA
Type: cell-based, human
Parameters: RFU PODN (11730768_x_at) / Fold change /veh PODN (11730768_x_at) / RFU LINC00158 (11744669_a_at) / Fold change /veh LINC00158 (11744669_a_at) / RFU DUSP10 (11751237_a_at) / Fold change /veh DUSP10 (11751237_a_at) / RFU ID3 (11757404_x_at) / Fold change /veh ID3 (11757404_x_at) / RFU PLEKHG5 (11737974_s_at) / Fold change /veh PLEKHG5 (11737974_s_at) / RFU LRRC4B (11730491_at) / Fold change /veh LRRC4B (11730491_at) / RFU GIMAP4 (11747438_a_at) / Fold change /veh GIMAP4 (11747438_a_at) / RFU KRT8 (11758183_x_at) / Fold change /veh KRT8 (11758183_x_at) / RFU CNN1 (11734310_a_at) / Fold change /veh CNN1 (11734310_a_at) / RFU VPS37D (11726825_at) / Fold change /veh VPS37D (11726825_at) / RFU C10orf10 (11716522_x_at) / Fold change /veh C10orf10 (11716522_x_at) / RFU KIR2DL2 /// KIR2DL4 /// KIR2DL5A /// KIR2DL5B /// KIR2DS1 /// KIR2DS2 /// KIR2DS3 /// KIR2DS4 /// KIR3DL3 /// KIR3DL3 /// KIR3DS1 (11738374_at) / Fold change /veh KIR2DL2 /// KIR2DL4 /// KIR2DL5A /// KIR2DL5B /// KIR2DS1 /// KIR2DS2 /// KIR2DS3 /// KIR2DS4 /// KIR3DL3 /// KIR3DL3 /// KIR3DS1 (11738374_at) / RFU C1QL1 (11718748_at) / Fold change /veh C1QL1 (11718748_at) / RFU TMPRSS4 (11747572_a_at) / Fold change /veh TMPRSS4 (11747572_a_at) / RFU HAMP (11756126_x_at) / Fold change /veh HAMP (11756126_x_at) / RFU RNFT2 (11725882_a_at) / Fold change /veh RNFT2 (11725882_a_at) / RFU NR4A2 (11747474_a_at) / Fold change /veh NR4A2 (11747474_a_at) / RFU ABCC12 (11746883_a_at) / Fold change /veh ABCC12 (11746883_a_at) / RFU TMEM136 (11760407_x_at) / Fold change /veh TMEM136 (11760407_x_at) / RFU CLDN22 /// WWC2 (11732394_at) / Fold change /veh CLDN22 /// WWC2 (11732394_at) / RFU HLA-DPB1 (11760878_x_at) / Fold change /veh HLA-DPB1 (11760878_x_at) / RFU SPINT1 (11716480_a_at) / Fold change /veh SPINT1 (11716480_a_at) / RFU GAP43 (11754022_s_at) / Fold change /veh GAP43 (11754022_s_at) / RFU A4GNT (11735810_at) / Fold change /veh A4GNT (11735810_at) / RFU PRB3 (11715151_x_at) / Fold change /veh PRB3 (11715151_x_at) / RFU TUBB4B (11761932_at) / Fold change /veh TUBB4B (11761932_at) / RFU CAPN14 (11732068_a_at) / Fold change /veh CAPN14 (11732068_a_at) / RFU TMCC2 (11721928_a_at) / Fold change /veh TMCC2 (11721928_a_at) / RFU IRGQ (11745062_a_at) / Fold change /veh IRGQ (11745062_a_at) / RFU FAM174B (11720279_a_at) / Fold change /veh FAM174B (11720279_a_at) / RFU TMPRSS4 (11748680_a_at) / Fold change /veh TMPRSS4 (11748680_a_at) / RFU FAM212B (11763350_a_at) / Fold change /veh FAM212B (11763350_a_at) / RFU PLEKHG5 (11743358_a_at) / Fold change /veh PLEKHG5 (11743358_a_at) / RFU ZSCAN30 (11745921_a_at) / Fold change /veh ZSCAN30 (11745921_a_at) / RFU CMKLR1 (11741424_a_at) / Fold change /veh CMKLR1 (11741424_a_at) / RFU LOC101060620 /// MAPK8IP1 (11723275_at) / Fold change /veh LOC101060620 /// MAPK8IP1 (11723275_at) / RFU SPTSSB (11747773_x_at) / Fold change /veh SPTSSB (11747773_x_at) / RFU PRSS12 (11739890_at) / Fold change /veh PRSS12 (11739890_at) / RFU BIN1 (11741810_x_at) / Fold change /veh BIN1 (11741810_x_at) / RFU WNT11 (11732464_a_at) / Fold change /veh WNT11 (11732464_a_at) / RFU C10orf10 (11716521_a_at) / Fold change /veh C10orf10 (11716521_a_at) / RFU C5orf56 (11738089_at) / Fold change /veh C5orf56 (11738089_at) / RFU CYB561 (11721691_x_at) / Fold change /veh CYB561 (11721691_x_at) / RFU ANKRD19P (11752326_a_at) / Fold change /veh ANKRD19P (11752326_a_at) / RFU OR2T12 /// OR2T33 /// OR2T8 (11738714_s_at) / Fold change /veh OR2T12 /// OR2T33 /// OR2T8 (11738714_s_at) / RFU VCAN (11748164_a_at) / Fold change /veh VCAN (11748164_a_at) / RFU JSRP1 (11732532_at) / Fold change /veh JSRP1 (11732532_at) / RFU KRTAP10-11 (11738290_x_at) / Fold change /veh KRTAP10-11 (11738290_x_at) / RFU MYO3A (11730013_a_at) / Fold change /veh MYO3A (11730013_a_at) / RFU EBF3 (11725865_a_at) / Fold change /veh EBF3 (11725865_a_at) / RFU CAMK2N1 (11719241_x_at) / Fold change /veh CAMK2N1 (11719241_x_at) / RFU C5orf56 (11738088_a_at) / Fold change /veh C5orf56 (11738088_a_at) / RFU OLFML3 (11715873_a_at) / Fold change /veh OLFML3 (11715873_a_at) / RFU LOC100653217 /// NTM (11731650_a_at) / Fold change /veh LOC100653217 /// NTM (11731650_a_at) / RFU MAPK11 (11762145_a_at) / Fold change /veh MAPK11 (11762145_a_at) / RFU FIZ1 (11724087_x_at) / Fold change /veh FIZ1 (11724087_x_at) / RFU OASL (11726364_x_at) / Fold change /veh OASL (11726364_x_at) / RFU SOX15 (11748057_x_at) / Fold change /veh SOX15 (11748057_x_at) / RFU CD79A (11719716_a_at) / Fold change /veh CD79A (11719716_a_at) / RFU HIST1H1D (11736915_at) / Fold change /veh HIST1H1D (11736915_at) / RFU CASKIN2 (11723855_a_at) / Fold change /veh CASKIN2 (11723855_a_at) / RFU LOC730098 (11760151_x_at) / Fold change /veh LOC730098 (11760151_x_at) / RFU OR4N2 (11742367_at) / Fold change /veh OR4N2 (11742367_at) / RFU PRRT2 (11749266_a_at) / Fold change /veh PRRT2 (11749266_a_at) / RFU SNX32 (11753110_a_at) / Fold change /veh SNX32 (11753110_a_at) / RFU CDHR5 (11726645_a_at) / Fold change /veh CDHR5 (11726645_a_at) / RFU RCAN1 (11760418_a_at) / Fold change /veh RCAN1 (11760418_a_at) / RFU FAM167A (11723789_a_at) / Fold change /veh FAM167A (11723789_a_at) / RFU FAM26E (11764081_at) / Fold change /veh FAM26E (11764081_at) / RFU ISYNA1 (11749810_s_at) / Fold change /veh ISYNA1 (11749810_s_at) / RFU ACY1 (11761880_at) / Fold change /veh ACY1 (11761880_at) / RFU 11764098_at / Fold change /veh 11764098_at / RFU SAMD14 (11745864_x_at) / Fold change /veh SAMD14 (11745864_x_at) / RFU NPB (11741838_a_at) / Fold change /veh NPB (11741838_a_at) / RFU TMPRSS6 (11731388_a_at) / Fold change /veh TMPRSS6 (11731388_a_at) / RFU KRTAP10-2 (11738614_at) / Fold change /veh KRTAP10-2 (11738614_at) / RFU ARHGAP8 /// PRR5-ARHGAP8 (11727945_x_at) / Fold change /veh ARHGAP8 /// PRR5-ARHGAP8 (11727945_x_at) / RFU KRTAP5-7 /// NADSYN1 (11734609_at) / Fold change /veh KRTAP5-7 /// NADSYN1 (11734609_at) / RFU RASL12 (11751679_a_at) / Fold change /veh RASL12 (11751679_a_at) / RFU CDKN2B (11736163_a_at) / Fold change /veh CDKN2B (11736163_a_at) / RFU PRF1 (11729649_at) / Fold change /veh PRF1 (11729649_at) / RFU, ZNF638 /// ZNF638-IT1 / Fold change vs veh, ZNF638 /// ZNF638-IT1 / RFU, PANK3 / Fold change vs veh, PANK3 / RFU, SH3YL1 / Fold change vs veh, SH3YL1 / RFU, ZEB2 / Fold change vs veh, ZEB2 / RFU, NRIP1 / Fold change vs veh, NRIP1 / RFU, PTTG1IP / Fold change vs veh, PTTG1IP / RFU, CAPN2 / Fold change vs veh, CAPN2 / RFU, MED14 / Fold change vs veh, MED14 / RFU, SNORA58 / Fold change vs veh, SNORA58 / RFU, C1orf63 / Fold change vs veh, C1orf63 / RFU, LRRFIP1 / Fold change vs veh, LRRFIP1 / RFU, NDUFAF7 / Fold change vs veh, NDUFAF7 / RFU, SLC12A2 / Fold change vs veh, SLC12A2 / RFU, IBTK / Fold change vs veh, IBTK / RFU, ESF1 / Fold change vs veh, ESF1 / Fold change vs veh, TMEM50B / RFU, TAOK1 / Fold change vs veh, TAOK1 / RFU, ACBD3 / Fold change vs veh, ACBD3 / RFU, TMA16 / Fold change vs veh, TMA16 / RFU, RWDD3 / Fold change vs veh, RWDD3 / RFU, BCAT1 / Fold change vs veh, BCAT1 / RFU, EDEM3 / Fold change vs veh, EDEM3 / RFU, TMEM33 / Fold change vs veh, TMEM33 / RFU, WDR75 / Fold change vs veh, WDR75 / RFU, AHCTF1 / Fold change vs veh, AHCTF1 / RFU, TFRC / Fold change vs veh, TFRC / RFU, ZDHHC17 / Fold change vs veh, ZDHHC17 / RFU, NOM1 / Fold change vs veh, NOM1 / RFU, ARL8B / Fold change vs veh, ARL8B / RFU, ZBTB11 / Fold change vs veh, ZBTB11 / RFU, TAMM41 / Fold change vs veh, TAMM41 / RFU, KIAA1704 /// LOC100996395 / Fold change vs veh, KIAA1704 /// LOC100996395 / RFU, ING1 / Fold change vs veh, ING1 / RFU, TRMT61B / Fold change vs veh, TRMT61B / RFU, FUBP3 / Fold change vs veh, FUBP3 / RFU, TP53 / Fold change vs veh, TP53 / RFU, TNKS2 / Fold change vs veh, TNKS2 / RFU, ZFP14 / Fold change vs veh, ZFP14 / RFU, ACTR2 / Fold change vs veh, ACTR2 / RFU, PPP3R1 / Fold change vs veh, PPP3R1 / RFU, PIK3R1 / Fold change vs veh, PIK3R1 / RFU, HNRNPA1 / Fold change vs veh, HNRNPA1 / RFU, RNF170 / Fold change vs veh, RNF170 / RFU, ZNF28 / Fold change vs veh, ZNF28 / RFU, RNGTT / Fold change vs veh, RNGTT / RFU, OGT / Fold change vs veh, OGT / RFU, BRD1 / Fold change vs veh, BRD1 / RFU, MARS / Fold change vs veh, MARS / RFU, ZNF655 / Fold change vs veh, ZNF655 / RFU, FAHD1 / Fold change vs veh, FAHD1 / RFU, BDP1 / Fold change vs veh, BDP1 / RFU, LRRCC1 / Fold change vs veh, LRRCC1 / RFU, ARID1A / Fold change vs veh, ARID1A / RFU, ZNF146 / Fold change vs veh, ZNF146 / RFU, ZNF330 / Fold change vs veh, ZNF330 / RFU, GPN3 / Fold change vs veh, GPN3 / RFU, C9orf123 / Fold change vs veh, C9orf123 / RFU, N4BP2L2 / Fold change vs veh, N4BP2L2 / RFU, ARFIP1 / Fold change vs veh, ARFIP1 / RFU, FAM179B / Fold change vs veh, FAM179B / RFU, BCL10 / Fold change vs veh, BCL10 / RFU, UHRF1BP1L / Fold change vs veh, UHRF1BP1L / RFU, BET1 / Fold change vs veh, BET1 / RFU, CNOT2 / Fold change vs veh, CNOT2 / RFU, ZNF268 / Fold change vs veh, ZNF268 / Fold change vs veh, ZNF507 / RFU, DGCR2 / Fold change vs veh, DGCR2 / RFU, WDSUB1 / Fold change vs veh, WDSUB1 / Fold change vs veh, HSP90B1 /// MIR3652 / RFU, ADSS / Fold change vs veh, ADSS / RFU, GK / Fold change vs veh, GK / RFU, ZNF148 / Fold change vs veh, ZNF148 / RFU, TAF9 / Fold change vs veh, TAF9 / RFU, SLC1A5 / Fold change vs veh, SLC1A5 / RFU, SLMO2 / Fold change vs veh, SLMO2 / RFU, ABCC4 / Fold change vs veh, ABCC4 / RFU, LOC101060439 /// RAP1B / Fold change vs veh, LOC101060439 /// RAP1B / RFU, RFX7 / Fold change vs veh, RFX7 / RFU, GTPBP10 / Fold change vs veh, GTPBP10 / RFU, CNEP1R1 / Fold change vs veh, CNEP1R1 / RFU, BIVM-ERCC5 /// ERCC5 / Fold change vs veh, BIVM-ERCC5 /// ERCC5 / RFU, ILF3 / Fold change vs veh, ILF3 / RFU 11762660_at / Fold change /veh 11762660_at / RFU VCAN (11757783_s_at) / Fold change /veh VCAN (11757783_s_at) / RFU DDX43 (11728927_at) / Fold change /veh DDX43 (11728927_at) / RFU KRT8 (11758188_x_at) / Fold change /veh KRT8 (11758188_x_at) / RFU NKD1 (11759106_at) / Fold change /veh NKD1 (11759106_at) / RFU SRD5A1 (11742802_a_at) / Fold change /veh SRD5A1 (11742802_a_at) / RFU TPSAB1 /// TPSB2 (11721975_s_at) / Fold change /veh TPSAB1 /// TPSB2 (11721975_s_at) / RFU GSTM3 (11746129_a_at) / Fold change /veh GSTM3 (11746129_a_at) / RFU IL23R (11737362_x_at) / Fold change /veh IL23R (11737362_x_at) / RFU TMEM51 (11727254_a_at) / Fold change /veh TMEM51 (11727254_a_at) / RFU PIWIL2 (11732686_x_at) / Fold change /veh PIWIL2 (11732686_x_at) / RFU ORM1 (11744905_x_at) / Fold change /veh ORM1 (11744905_x_at) / RFU CCDC152 (11743942_at) / Fold change /veh CCDC152 (11743942_at) / RFU ECM1 (11717891_a_at) / Fold change /veh ECM1 (11717891_a_at) / RFU IL23R (11748794_a_at) / Fold change /veh IL23R (11748794_a_at) / RFU TNFAIP8L3 (11732012_x_at) / Fold change /veh TNFAIP8L3 (11732012_x_at) / RFU MBOAT4 (11741988_at) / Fold change /veh MBOAT4 (11741988_at) / RFU 11764193_at / Fold change /veh 11764193_at / RFU TMEM53 (11763286_at) / Fold change /veh TMEM53 (11763286_at) / RFU MAGEB2 (11727129_at) / Fold change /veh MAGEB2 (11727129_at) / RFU TMEM200A (11744735_a_at) / Fold change /veh TMEM200A (11744735_a_at) / RFU CCDC152 (11751479_a_at) / Fold change /veh CCDC152 (11751479_a_at) / RFU FAM211A (11726209_a_at) / Fold change /veh FAM211A (11726209_a_at) / RFU RGS16 (11746705_a_at) / Fold change /veh RGS16 (11746705_a_at) / RFU VCAN (11755009_s_at) / Fold change /veh VCAN (11755009_s_at) / RFU RHOB (11743442_s_at) / Fold change /veh RHOB (11743442_s_at) / RFU RGS16 (11720943_a_at) / Fold change /veh RGS16 (11720943_a_at) / RFU RGS16 (11720944_at) / Fold change /veh RGS16 (11720944_at) / RFU, VPS4B / Fold change vs veh, VPS4B / RFU, CREB1 / Fold change vs veh, CREB1 / RFU, DNAJC13 / Fold change vs veh, DNAJC13 / RFU, GNAQ / Fold change vs veh, GNAQ / RFU, CDK5R1 / Fold change vs veh, CDK5R1 / RFU, ZRANB3 / Fold change vs veh, ZRANB3 / RFU, CUL4A / Fold change vs veh, CUL4A / RFU, CCNY / Fold change vs veh, CCNY / RFU, UFL1 / Fold change vs veh, UFL1 / RFU, COG3 / Fold change vs veh, COG3 / RFU, DIAPH2 / Fold change vs veh, DIAPH2 / RFU, SKA2 / Fold change vs veh, SKA2 / RFU, AFF3 / Fold change vs veh, AFF3 / RFU, LMF1 / Fold change vs veh, LMF1 / RFU, IPO11 / Fold change vs veh, IPO11 / RFU, DFFB / Fold change vs veh, DFFB / RFU, FOXP1 / Fold change vs veh, FOXP1 / RFU, CARD8 / Fold change vs veh, CARD8 / RFU, STRN3 / Fold change vs veh, STRN3 / RFU, ADK / Fold change vs veh, ADK / RFU, RASSF2 / Fold change vs veh, RASSF2 / RFU, WIPF1 / Fold change vs veh, WIPF1 / RFU, LARP1B / Fold change vs veh, LARP1B / RFU, RASA1 / Fold change vs veh, RASA1 / RFU, RB1 / Fold change vs veh, RB1 / RFU, PPFIA1 / Fold change vs veh, PPFIA1 / RFU, MAT2A / Fold change vs veh, MAT2A / RFU, CCT5 / Fold change vs veh, CCT5 / RFU, WDR92 / Fold change vs veh, WDR92 / RFU, CUX1 / Fold change vs veh, CUX1 / RFU, TTC7A / Fold change vs veh, TTC7A / RFU, TMEM135 / Fold change vs veh, TMEM135 / RFU, DEPTOR / Fold change vs veh, DEPTOR / RFU, CPM / Fold change vs veh, CPM / RFU, DNAJB6 / Fold change vs veh, DNAJB6 / RFU, CACNA2D3 / Fold change vs veh, CACNA2D3 / RFU, DTX4 / Fold change vs veh, DTX4 / RFU, TFCP2 / Fold change vs veh, TFCP2 / RFU, GMCL1 /// GMCL1P1 / Fold change vs veh, GMCL1 /// GMCL1P1 / RFU, AEBP2 / Fold change vs veh, AEBP2 / RFU, SNHG1 /// SNORD22 /// SNORD25 /// SNORD26 /// SNORD27 /// SNORD28 /// SNORD29 /// SNORD31 / Fold change vs veh, SNHG1 /// SNORD22 /// SNORD25 /// SNORD26 /// SNORD27 /// SNORD28 /// SNORD29 /// SNORD31 / Fold change (Aza/veh), C12orf56 (ProbeSet 11735607_a_at) / Fold change (ACY-1035/veh), C12orf56 (ProbeSet 11735607_a_at) / Fold change (Aza/veh), FGFR1OP (ProbeSet 11751329_s_at) / Fold change (ACY-1035/veh), FGFR1OP (ProbeSet 11751329_s_at) / Fold change (Aza/veh), VPS36 (ProbeSet 11739960_a_at) / Fold change (ACY-1035/veh), VPS36 (ProbeSet 11739960_a_at) / RFU SYPL1 (11715823_x_at) / Fold change /veh SYPL1 (11715823_x_at) / RFU IGFBP7 (11715501_s_at) / Fold change /veh IGFBP7 (11715501_s_at) / RFU REEP3 (11722064_at) / Fold change /veh REEP3 (11722064_at) / RFU IGLL1 (11728026_x_at) / Fold change /veh IGLL1 (11728026_x_at): dose or concentration left out as unconfirmed
Conditions: ProbeSet 11727827_x_at; LIST B

Compound: Nc1ncn([C@@H]2O[C@H](CO)[C@@H](O)[C@H]2O)c(=O)n1 [azacitidine]
- Fold change vs veh, NDUFAF7: 0.98
